# In PMC8046379, “Fragment binding to the Nsp3 macrodomain of SARS-CoV-2 identified through crystallographic screening and computational docking” (Science Advances, 2021):
# Assays:
# Assay type in all cases: binding
# SARS-CoV-2 Nsp3 Mac1 [1] = biological target: T1, SARS-CoV-2 Nsp3 Mac1 (Severe acute respiratory syndrome coronavirus 2, UniProt P0DTD1); conditions: fragments 0.188 to 3 mM concentration response
# SARS-CoV-2 Nsp3 Mac1 [2] = biological target: T1, SARS-CoV-2 Nsp3 Mac1; assay: biochemical; conditions: ADPr-peptide displacement from His6-Mac1; ± estimated SE
# SARS-CoV-2 Nsp3 Mac1 [3] = biological target: T1, SARS-CoV-2 Nsp3 Mac1; assay: biochemical
Compound,"effect on apparent melting temperature (Tma) in DSF, in words (SARS-CoV-2 Nsp3 Mac1 [1])",IC50 (SARS-CoV-2 Nsp3 Mac1 [2]),Kd (SARS-CoV-2 Nsp3 Mac1 [3])
Nc1nc2nccnc2c(=O)[nH]1 [pterin],not identified as binders,784 µM,
CN(CC1CCCOC1)c1ncc(O)cn1 (stereo not drawn) [ZINC1337772170],not identified as binders,971 µM,
"adenosine diphosphate ribose [ADP-ribose, reference compound]",substantial elevation,,
Cn1cnc2c(N)nc(N)nc21 [ZINC26180281],stabilized Mac1,> 2000 µM,2900 ± 700 µM
Cc1c(C)n(Cc2ccco2)c2ncnc(N)c12 [ZINC3888754],stabilized Mac1,,
